Assay results as given in patent US20090297638A1.

Key:
TNF-RE tkLuc = TNF-RE tkLuc reporter, effect of antiestrogens (ER subtype not given); type: cell-based, human; settings: for effect on the repression induced by E2: TNF-RE tkLuc, with E2; for activation of TNF-RE tkLuc: antiestrogens, in contrast to E2
Excerpt: Plasmid Construction. […] ERβmutants were created with QuikChange site-directed mutagenesis kits (Stratagene), by using oligonucleotides containing the mutation. The mutants were sequenced with Sequenase kits (Amersham Pharmacia) to verify the presence of the mutation.

human ERβ = target: T1, human ERβ (Homo sapiens, UniProt Q92731); test: ERE-tk-Luc luciferase assay in U2OS osteosarcoma cells, ERβ; type: cell-based; settings: co-administration with the extract (Herb 16)
T1 construct: expressed in transfected cells; host or cells: U2OS (human osteosarcoma)
Method: Preparation of Anemarrhena Asphodeloides Bge. from the Liliaceae Family: Samples of Anemarrhena asphodeloides Bge. from the Liliaceae Family were ground to fine powder using a commercial electric herb grinder; 5 grams were weighed and extracted in a) 50 ml of 100% EtOH or b) 50 ml of distilled H2O was simmered at 75° Celsius for 45 minutes. The extracts (a and b) were than decanted and only the soluble material was used.

[1] = women at high risk for breast cancer; cited from earlier work
[2] = five years of therapy; cited from earlier work

T1 sequence (Q92731 whole entry): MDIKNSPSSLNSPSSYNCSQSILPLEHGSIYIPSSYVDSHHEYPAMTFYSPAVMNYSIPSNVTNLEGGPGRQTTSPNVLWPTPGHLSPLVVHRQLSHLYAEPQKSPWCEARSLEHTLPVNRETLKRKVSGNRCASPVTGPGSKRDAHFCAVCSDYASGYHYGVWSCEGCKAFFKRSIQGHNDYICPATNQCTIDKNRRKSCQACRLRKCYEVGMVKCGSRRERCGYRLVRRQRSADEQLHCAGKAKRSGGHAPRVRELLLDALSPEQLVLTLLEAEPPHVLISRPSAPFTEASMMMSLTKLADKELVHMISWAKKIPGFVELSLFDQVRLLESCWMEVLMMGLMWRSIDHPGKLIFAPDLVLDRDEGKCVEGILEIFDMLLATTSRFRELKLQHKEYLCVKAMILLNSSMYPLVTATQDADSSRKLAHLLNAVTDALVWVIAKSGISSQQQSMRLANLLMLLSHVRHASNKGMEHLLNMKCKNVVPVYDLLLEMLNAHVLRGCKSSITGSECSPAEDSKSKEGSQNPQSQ

Row | Structure (SMILES) | effect on the repression induced by E2 (TNF-RE tkLuc) | activation of TNF-RE tkLuc (TNF-RE tkLuc) | effect on extract-stimulated ERE-tk-Luc expression (human ERβ; FIG. 5) | effect on extract-stimulated ERE-tk-Luc expression (human ERβ; FIG. 5, listed as ICI) | effect on extract-stimulated ERE-tk-Luc expression (human ERβ; FIG. 5, listed as Raloxifene) | reduction of the risk of primary invasive breast cancer [1] | reduction of mortality from breast cancer [2] | reduction of the risk of recurrences [2]
1 | C[C@]12CC[C@@H]3c4ccc(O)cc4C[C@@H](CCCCCCCCC[S+]([O-])CCCC(F)(F)C(F)(F)F)[C@H]3[C@@H]1CC[C@@H]2O (stereo partly shown) [ICI 182780] | abolished the repression induced by E2 | 2 fold | counteracted | attenuated | – | – | – | –
2 | O=C(c1ccc(OCCN2CCCCC2)cc1)c1c(-c2ccc(O)cc2)sc2cc(O)ccc12 [raloxifene] | abolished the repression induced by E2 | 2 fold | counteracted | – | attenuated | – | – | –
3 | CC/C(=C(\c1ccccc1)c1ccc(OCCN(C)C)cc1)c1ccccc1 [tamoxifen] | abolished the repression induced by E2 | 2 fold | – | – | – | 49% | 22% | 42%
